Common to all, as to format: ADME, organism-based
Data set [1] in a line: AUC (0 to infinity) in healthy human at 500 mg, po administered as single dose. Also noted: dose 500 mg, route oral, time infinity. Conditions: plasma.
A short description of data set [2]: Terminal half life in healthy human at 500 mg, po administered as single dose. Particulars: in vivo.
The nature of data set [3]: Cmax in healthy human at 400 mg, po administered as single dose. Also noted: dose 400 mg, route oral. Conditions: in vivo.
The nature of data set [4]: AUC (0 to infinity) in healthy human at 400 mg, po administered as single dose. Also noted: dose 400 mg, time infinity, route oral. Conditions: plasma.
Data set [5] in a line: Half life in healthy human at 400 mg, po administered as single dose. Particulars: in vivo.
Data set [6] in a line: Cmax in healthy human at 500 mg, po administered as single dose. Particulars: in vivo. Also noted: dose 500 mg, route oral.
The nature of data set [7]: Distribution half life in healthy human at 400 mg, po administered as single dose. Conditions: in vivo.
A short description of data set [8]: Terminal half life in healthy human at 400 mg, po administered as single dose. Conditions: in vivo.

Usually AUC(0-inf) stands for total exposure, with the tail of the curve extrapolated. Broadly, the half-life is how long it takes for the measured level to halve. In data set [1], `CC[C@H]1OC(=O)[C@H](C)[C@@H](O[C@H]2C[C@@](C)(OC)[C@@H](O)[C@H](C)O2)[C@H](C)[C@@H](O[C@@H]2O[C@H](C)C[C@H](N(C)C)[C@H]2O)[C@](C)(O)C[C@@H](C)CN(C)[C@H](C)[C@@H](O)[C@]1(C)O` [AZITHROMYCIN] returned an AUC(0-inf) of 3390 ng·h/mL. For the same compound, the half-life in data set [2] was 35 h.
As usually defined, the Cmax is the peak of the concentration-time curve. `CC[C@H]1OC(=O)[C@H](C)[C@@H](O[C@H]2C[C@@](C)(OC)[C@@H](O)[C@H](C)O2)[C@H](C)[C@@H](O[C@@H]2O[C@H](C)C[C@H](N(C)C)[C@H]2O)[C@](C)(OC)C[C@@H](C)C(=O)[C@H](C)[C@@H](O)[C@]1(C)O` [CLARITHROMYCIN] gave a Cmax in data set [3] of 780 ng/mL. Also, the total exposure AUC(0-inf) in data set [4] was determined as 7520 ng·h/mL. Further, the half-life in data set [5] is 3.89 h.
In data set [6], `CC[C@H]1OC(=O)[C@H](C)[C@@H](O[C@H]2C[C@@](C)(OC)[C@@H](O)[C@H](C)O2)[C@H](C)[C@@H](O[C@@H]2O[C@H](C)C[C@H](N(C)C)[C@H]2O)[C@](C)(O)C[C@@H](C)C(=O)[C@H](C)[C@@H](O)[C@]1(C)O` [ERYTHROMYCIN] came in with a Cmax of 2000 ng/mL. For the same compound, the AUC(0-inf) in data set [1] came out at 7700 ng·h/mL.
`CC[C@H]1OC(=O)[C@H](C)C(=O)[C@H](C)[C@@H](O[C@@H]2O[C@H](C)C[C@H](N(C)C)[C@H]2O)[C@](C)(OC)C[C@@H](C)C(=O)[C@H](C)[C@H]2N(CCCCn3cnc(-c4cccnc4)c3)C(=O)O[C@]12C` [TELITHROMYCIN]: in data set [3], the concentration peaked (Cmax) at 800 ng/mL. This compound gave an AUC(0-inf) in data set [4] of 3090 ng·h/mL. Moreover, the half-life is 2.13 h in data set [7] and 6.68 h in data set [8].

Values taken from ChEMBL document CHEMBL1649161, “Pharmacokinetics of EDP-420 after ascending single oral doses in healthy adult volunteers” (Antimicrob Agents Chemother, 2009).
